Patent US9725416B2, “Ethynyl derivatives” (Hoffmann-La Roche Inc., priority 2014, dated 2017)

Molecular target: T1, human mGlu4 receptor (Homo sapiens, UniProt Q14833)
T1 construct: expressed in transfected cells; host or cells: HEK-293 (monoclonal, stably transfected)
Assay: Ca2+ mobilization in vitro assay on recombinant human mGlu4 expressed in HEK293 cells (mGlu4 PAM)
Type: cell-based
Conditions: for Emax: HEK293, maximal response in % of the maximal stimulatory effect obtained with saturating concentrations of L-AP4, read-out: Eff. (%); for EC50: HEK-293 cells, Ca2+ mobilization, L-AP4 added at EC20
Procedure: Determination of EC50 Values Using a Ca2+ mobilization in vitro Assay on Recombinant Human mGlu4 Expressed in HEK293 cells:
A monoclonal HEK-293 cell line stably transfected with a cDNA encoding for the human mGlu4 receptor was generated; for the work with mGlu4 Positive Allosteric Modulators (PAMs), a cell line with low receptor expression levels and low constitutive receptor activity was selected to allow the differentiation of agonistic versus PAM activity. Cells were cultured according to standard protocols (Freshney, 2000) in Dulbecco's Modified Eagle Medium with high glucose supplemented with 1 mM glutamine, 10% (vol/vol) heat-inactivated bovine calf serum, Penicillin/Streptomycin, 50 μg/ml hygromycin and 15 μg/ml blasticidin (all cell culture reagents and antibiotics from Invitrogen, Basel, Switzerland).
About 24 hrs before an experiment, 5×10^4 cells/well were seeded in poly-D-lysine coated, black/clear-bottomed 96-well plates. The cells were loaded with 2.5 μM Fluo-4AM in loading buffer (1×HBSS, 20 mM HEPES) for 1 hr at 37° C. and washed five times with loading buffer. The cells were transferred into a Functional Drug Screening System 7000 (Hamamatsu, Paris, France), and 11 half logarithmic serial dilutions of test compound at 37° C. were added and the cells were incubated for 10-30 min. with on-line recording of fluorescence. Following this pre-incubation step, the agonist (2S)-2-amino-4-phosphonobutanoic acid (L-AP4) was added to the cells at a concentration corresponding to EC20 with on-line recording of fluorescence; in order to account for day-to-day variations in the responsiveness of cells, the EC20 of L-AP4 was determined immediately ahead of each experiment by recording of a full dose-response curve of L-AP4.
Responses were measured as peak increase in fluorescence minus basal (i.e. fluorescence without addition of L-AP4), normalized to the maximal stimulatory effect obtained with saturating concentrations of L-AP4. Graphs were plotted with the % maximal stimulatory using XLfit, a curve fitting program that iteratively plots the data using Levenburg Marquardt algorithm. The single site competition analysis equation used was y=A+((B−A)/(1+((x/C)D))), where y is the % maximal stimulatory effect, A is the minimum y, B is the maximum y, C is the EC50, x is the log 10 of the concentration of the competing compound and D is the slope of the curve (the Hill Coefficient). From these curves the EC50 (drug concentration at which 50% of the maximal receptor activation was achieved), the Hill coefficient as well as the maximal response in % of the maximal stimulatory effect obtained with saturating concentrations of L-AP4 were calculated (see FIG. 1).
A depression of the signal observed after addition of the EC20 concentration of L-AP4was indicative of an inhibitory activity of the test compound.

T1 sequence (Q14833 33-912): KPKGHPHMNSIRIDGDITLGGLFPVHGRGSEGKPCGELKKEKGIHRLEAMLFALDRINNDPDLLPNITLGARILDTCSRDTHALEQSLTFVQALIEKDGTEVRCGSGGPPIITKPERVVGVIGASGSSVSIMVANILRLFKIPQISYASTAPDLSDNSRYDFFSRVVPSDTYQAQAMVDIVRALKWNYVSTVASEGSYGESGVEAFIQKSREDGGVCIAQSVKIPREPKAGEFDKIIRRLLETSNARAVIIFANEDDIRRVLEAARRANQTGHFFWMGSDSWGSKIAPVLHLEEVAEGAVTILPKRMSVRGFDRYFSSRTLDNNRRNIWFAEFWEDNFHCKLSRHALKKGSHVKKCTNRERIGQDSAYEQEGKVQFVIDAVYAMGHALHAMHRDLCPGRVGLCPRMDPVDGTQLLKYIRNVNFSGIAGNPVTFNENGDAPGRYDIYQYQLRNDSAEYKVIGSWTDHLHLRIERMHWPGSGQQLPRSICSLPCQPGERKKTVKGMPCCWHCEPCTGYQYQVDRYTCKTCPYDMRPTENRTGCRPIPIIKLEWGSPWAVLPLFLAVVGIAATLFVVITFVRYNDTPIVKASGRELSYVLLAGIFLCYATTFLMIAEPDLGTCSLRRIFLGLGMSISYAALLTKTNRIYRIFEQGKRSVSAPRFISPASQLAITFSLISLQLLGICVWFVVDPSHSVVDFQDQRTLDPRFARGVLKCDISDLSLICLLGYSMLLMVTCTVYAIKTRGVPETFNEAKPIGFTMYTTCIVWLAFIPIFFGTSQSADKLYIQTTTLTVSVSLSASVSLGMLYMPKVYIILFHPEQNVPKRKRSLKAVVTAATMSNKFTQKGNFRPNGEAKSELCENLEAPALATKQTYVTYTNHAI

CN1C(=O)N(c2c(F)cc(C#Cc3ccccc3)cc2F)C(=O)C[C@@]1(C)c1ccnc(Cl)c1 [Example 60, (6S)-6-(2-Chloro-4-pyridyl)-3-[2,6-difluoro-4-(2-phenylethynyl)phenyl]-1,6-dimethyl-hexahydropyrimidine-2,4-dione]
Emax: 113%
EC50: 38 nM

CN1C(=O)N(c2ccc(C#Cc3ccccc3)cc2Cl)C(=O)CC12CCCCC2 [Example 3, 3-[2-Chloro-4-(2-phenylethynyl)phenyl]-1-methyl-1,3-diazaspiro[5.5]undecane-2,4-dione]
Emax: 105%
EC50: 245 nM

CN1C(=O)N(c2c(F)cc(C#Cc3ccccc3)cc2F)C(=O)C[C@@]1(C)c1ccc(=O)n(C)c1 [Example 66, (6S)-3-[2,6-Difluoro-4-(2-phenylethynyl)phenyl]-1,6-dimethyl-6-(1-methyl-6-oxo-3-pyridyl)hexahydropyrimidine-2,4-dione]
Emax: 114%
EC50: 43 nM

COc1cccc(C2(C)CC(=O)N(c3c(F)cc(C#Cc4cccnc4)cc3F)C(=O)N2C)c1 (racemic) [Example 42, (6RS)-3-[2,6-Difluoro-4-[2-(3-pyridyl)ethynyl]phenyl]-6-(3-methoxyphenyl)-1,6-dimethyl-hexahydropyrimidine-2,4-dione]
Emax: 116%
EC50: 165 nM

CN1C(=O)N(c2c(F)cc(C#Cc3ccccc3)cc2F)C(=O)C[C@@]1(C)c1ccncn1 [Example 55, (6S)-3-[2,6-Difluoro-4-(2-phenylethynyl)phenyl]-1,6-dimethyl-6-pyrimidin-4-yl-hexahydropyrimidine-2,4-dione]
Emax: 106%
EC50: 44 nM

COCC1(C)CC(=O)N(c2c(F)cc(C#Cc3ccccc3)cc2F)C(=O)N1C (racemic) [Example 30, (6RS)-3-[2,6-Difluoro-4-(2-phenylethynyl)phenyl]-6-(methoxymethyl)-1,6-dimethyl-hexahydropyrimidine-2,4-dione]
Emax: 103%
EC50: 123 nM

CC(C)n1cc([C@]2(C)CC(=O)N(c3c(F)cc(C#Cc4ccccc4)cc3F)C(=O)N2C)ccc1=O [Example 68, (6S)-3-[2,6-Difluoro-4-(2-phenylethynyl)phenyl]-6-(1-isopropyl-6-oxo-3-pyridyl)-1,6-dimethyl-hexahydropyrimidine-2,4-dione]
Emax: 113%
EC50: 44 nM

CN1C(=O)N(c2c(F)cc(C#Cc3ccccc3)cc2F)C(=O)CC1(C)C(C)(C)C (racemic) [Example 44, (6RS)-6-tert-Butyl-3-[2,6-difluoro-4-(2-phenylethynyl)phenyl]-1,6-dimethyl-hexahydropyrimidine-2,4-dione]
Emax: 109%
EC50: 66 nM

CN1C(=O)N(c2c(F)cc(C#Cc3ccccc3)cc2F)C(=O)C[C@@]1(C)c1cnccn1 [Example 57, (6S)-3-[2,6-Difluoro-4-(2-phenylethynyl)phenyl]-1,6-dimethyl-6-pyrazin-2-yl-hexahydropyrimidine-2,4-dione]
Emax: 102%
EC50: 117 nM

CN1C(=O)N(c2c(F)cc(C#Cc3ccccc3)cc2F)C(=O)CC1(C)c1cccnc1 (racemic) [Example 29, (6RS)-3-[2,6-Difluoro-4-(2-phenylethynyl)phenyl]-1,6-dimethyl-6-(3-pyridyl)hexahydropyrimidine-2,4-dione]
Emax: 144%
EC50: 109 nM

CCC1(CC)CC(=O)N(c2c(F)cc(C#Cc3ccccc3)cc2F)C(=O)N1C [Example 22, 3-[2,6-Difluoro-4-(2-phenylethynyl)phenyl]-6,6-diethyl-1-methyl-hexahydropyrimidine-2,4-dione]
Emax: 137%
EC50: 73 nM

Cc1nccc([C@]2(C)CC(=O)N(c3c(F)cc(C#Cc4ccccc4)cc3F)C(=O)N2C)n1 [Example 76, (6S)-3-[2,6-Difluoro-4-(2-phenylethynyl)phenyl]-1,6-dimethyl-6-(2-methylpyrimidin-4-yl)hexahydropyrimidine-2,4-dione]
Emax: 111%
EC50: 103 nM

CN1C(=O)N(c2c(F)cc(C#Cc3cccnc3)cc2F)C(=O)C[C@@]1(C)c1ccnc(Cl)c1 [Example 64, (6S)-6-(2-Chloro-4-pyridyl)-3-[2,6-difluoro-4-[2-(3-pyridyl)ethynyl]phenyl]-1,6-dimethyl-hexahydropyrimidine-2,4-dione]
Emax: 119%
EC50: 124 nM

CC(C)(C)C1(C)CC(=O)N(c2c(F)cc(C#Cc3ccccc3)cc2F)C(=O)N1 (racemic) [Example 43, (6RS)-6-tert-Butyl-3-[2,6-difluoro-4-(2-phenylethynyl)phenyl]-6-methyl-hexahydropyrimidine-2,4-dione]
Emax: 92%
EC50: 75 nM

COc1cc([C@]2(C)CC(=O)N(c3c(F)cc(C#Cc4ccccc4)cc3F)C(=O)N2C)ccn1 [Example 73, (6S)-3-[2,6-Difluoro-4-(2-phenylethynyl)phenyl]-6-(2-methoxy-4-pyridyl)-1,6-dimethyl-hexahydropyrimidine-2,4-dione]
Emax: 120%
EC50: 47 nM

CN1C(=O)N(c2c(F)cc(C#Cc3ccccc3)cc2Cl)C(=O)C[C@@]1(C)c1cccnc1 [Example 71, (6S)-3-[2-Chloro-6-fluoro-4-(2-phenylethynyl)phenyl]-1,6-dimethyl-6-(3-pyridyl)hexahydropyrimidine-2,4-dione]
Emax: 105%
EC50: 148 nM

CN1C(=O)N(c2ccc(C#Cc3ccccc3)cc2Cl)C(=O)CC1(C)c1cccnc1 (racemic) [Example 47, (6RS)-3-[2-Chloro-4-(2-phenylethynyl)phenyl]-1,6-dimethyl-6-(3-pyridyl)hexahydropyrimidine-2,4-dione]
Emax: 121%
EC50: 132 nM

CCC1(c2ccccc2)CC(=O)N(c2c(F)cc(C#Cc3cccnc3)cc2F)C(=O)N1C (racemic) [Example 48, (6RS)-3-[2,6-Difluoro-4-[2-(3-pyridyl)ethynyl]phenyl]-6-ethyl-1-methyl-6-phenyl-hexahydropyrimidine-2,4-dione]
Emax: 108%
EC50: 88 nM

CN1C(=O)N(c2c(F)cc(C#Cc3cccnc3)cc2Cl)C(=O)CC1(C)c1ccccc1 (racemic) [Example 34, (6RS)-3-[2-Chloro-6-fluoro-4-[2-(3-pyridyl)ethynyl]phenyl]-1,6-dimethyl-6-phenyl-hexahydropyrimidine-2,4-dione]
Emax: 150%
EC50: 135 nM

CC12CC(=O)N(c3c(F)cc(C#Cc4ccccc4)cc3F)C(=O)N1CCN(c1ccccc1)C2=O (racemic) [Example 38, (9aRS)-7-[2,6-Difluoro-4-(2-phenylethynyl)phenyl]-9a-methyl-2-phenyl-4,9-dihydro-3H-pyrazino[1,2-c]pyrimidine-1,6,8-trione]
Emax: 105%
EC50: 31 nM

CCC1(C)CC(=O)N(c2c(F)cc(C#Cc3ccccc3)cc2F)C(=O)N1C (racemic) [Example 18, (6RS)-3-[2,6-Difluoro-4-(2-phenylethynyl)phenyl]-6-ethyl-1,6-dimethyl-hexahydropyrimidine-2,4-dione]
Emax: 241%
EC50: 49 nM

CN1C(=O)N(c2c(F)cc(C#Cc3cccnc3)cc2F)C(=O)CC1(c1ccccc1)C(F)(F)F (racemic) [Example 72, (6RS)-3-[2,6-Difluoro-4-[2-(3-pyridyl)ethynyl]phenyl]-1-methyl-6-phenyl-6-(trifluoromethyl)hexahydropyrimidine-2,4-dione]
Emax: 91%
EC50: 82 nM

CN1C(=O)N(c2c(F)cc(C#Cc3ccccc3)cc2F)C(=O)CC1(C)c1ccccc1 (racemic) [Example 13, (6RS)-3-[2,6-Difluoro-4-(2-phenylethynyl)phenyl]-1,6-dimethyl-6-phenyl-hexahydropyrimidine-2,4-dione]
Emax: 119%
EC50: 28 nM

CN1C(=O)N(c2c(F)cc(C#Cc3cccnc3)cc2F)C(=O)CC1(C)C1CCCCC1 (racemic) [Example 31, (6RS)-6-Cyclohexyl-3-[2,6-difluoro-4-[2-(3-pyridyl)ethynyl]phenyl]-1,6-dimethyl-hexahydropyrimidine-2,4-dione]
Emax: 117%
EC50: 245 nM

CN1C(=O)N(c2c(F)cc(C#Cc3cccnc3)cc2F)C(=O)CC1(C)c1cccc(Cl)c1 (racemic) [Example 39, (6RS)-6-(3-Chlorophenyl)-3-[2,6-difluoro-4-[2-(3-pyridyl)ethynyl]phenyl]-1,6-dimethyl-hexahydropyrimidine-2,4-dione]
Emax: 112%
EC50: 224 nM
